# Article PMC2671240 (Journal of medicinal chemistry, 2009)
# “And” between values parts separate entries of the source, which are not always exact repeats. Equal entries are not always repeated. Where two headings read alike, the source gives them in different places. Marks after values point to notes of the source that are not given here.
# Columns and labels:
# [1] = tested on: subcutaneous pentylenetetrazole induced seizures; details: mice IP; cited from earlier work
# [2] = tested on: subcutaneous pentylenetetrazole induced seizures; details: rat PO; cited from earlier work
# [3] = tested on: maximal electroshock induced seizures; test: Maximal electroshock seizure; type: in vivo; details: mice IP, 100mg/kg
# [4] = tested on: subcutaneous pentylenetetrazole induced seizures; test: Subcutaneous metrazole seizure; type: in vivo, mice; details: 100mg/kg; for scMET, number protected/number tested: mice IP
# [5] = tested on: minimal muscular or neurological impairment (rotorod); test: TOX, motor impairment by rotorod paradigm, mice IP; type: in vivo; details: 100mg/kg
# [6] = tested on: maximal electroshock induced seizures; test: Maximal electroshock seizure; type: in vivo; details: rat PO, 30 mg/kg
# [7] = tested on: subcutaneous pentylenetetrazole induced seizures; test: Subcutaneous metrazole seizure; type: in vivo, rat; details: for scMET, number protected/number tested: rat PO
# [8] = tested on: minimal muscular or neurological impairment (gait); test: TOX, abnormal uncoordinated gait, rat PO; type: in vivo
# [9] = tested on: subcutaneous pentylenetetrazole induced seizures; test: Subcutaneous metrazole seizure; type: in vivo; details: rat IP, 50 mg/kg
# [10] = tested on: minimal muscular or neurological impairment (gait); test: TOX, abnormal uncoordinated gait, rat IP; type: in vivo
# kindled motor seizure = test: Preliminary hippocampal kindling screen, rats IP; type: in vivo
# [11] = chronic dosing (5 days), data from NINDS; cited from earlier work
# α1β3γ2 GABAA receptors = α1β3γ2 GABAA receptors (Homo sapiens, UniProt P14867+P18507); test: Stimulation of GABA-induced currents in oocytes expressing GABAA receptors; details: concentration not given
# α1β3γ2 GABAA receptors, sequence (P14867 28-456): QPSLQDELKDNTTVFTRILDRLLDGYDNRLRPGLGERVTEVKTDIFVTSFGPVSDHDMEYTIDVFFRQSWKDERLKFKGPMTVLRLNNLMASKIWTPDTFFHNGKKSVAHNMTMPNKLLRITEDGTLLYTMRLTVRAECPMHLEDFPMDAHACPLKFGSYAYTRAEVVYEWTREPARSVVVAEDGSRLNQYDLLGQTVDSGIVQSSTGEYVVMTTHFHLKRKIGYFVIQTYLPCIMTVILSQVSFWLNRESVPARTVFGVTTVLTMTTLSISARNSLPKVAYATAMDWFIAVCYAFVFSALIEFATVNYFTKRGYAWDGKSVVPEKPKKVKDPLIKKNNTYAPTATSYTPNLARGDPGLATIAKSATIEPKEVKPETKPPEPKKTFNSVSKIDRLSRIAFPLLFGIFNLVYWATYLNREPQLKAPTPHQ
# α1β3γ2 GABAA receptors, sequence (P28472 26-473 partner): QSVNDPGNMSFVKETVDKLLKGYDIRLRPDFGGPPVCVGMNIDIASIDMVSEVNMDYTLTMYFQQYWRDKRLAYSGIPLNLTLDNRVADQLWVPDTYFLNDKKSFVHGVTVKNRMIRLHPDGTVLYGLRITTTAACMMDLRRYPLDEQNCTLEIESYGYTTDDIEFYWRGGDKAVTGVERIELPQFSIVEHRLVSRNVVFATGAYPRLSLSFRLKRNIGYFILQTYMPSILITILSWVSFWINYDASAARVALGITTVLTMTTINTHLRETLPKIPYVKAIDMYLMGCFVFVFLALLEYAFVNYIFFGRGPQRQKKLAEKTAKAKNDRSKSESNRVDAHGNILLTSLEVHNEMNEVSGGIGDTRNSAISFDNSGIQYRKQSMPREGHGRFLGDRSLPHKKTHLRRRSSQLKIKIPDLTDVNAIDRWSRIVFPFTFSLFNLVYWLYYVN
# α1β3γ2 GABAA receptors, sequence (P18507 40-475): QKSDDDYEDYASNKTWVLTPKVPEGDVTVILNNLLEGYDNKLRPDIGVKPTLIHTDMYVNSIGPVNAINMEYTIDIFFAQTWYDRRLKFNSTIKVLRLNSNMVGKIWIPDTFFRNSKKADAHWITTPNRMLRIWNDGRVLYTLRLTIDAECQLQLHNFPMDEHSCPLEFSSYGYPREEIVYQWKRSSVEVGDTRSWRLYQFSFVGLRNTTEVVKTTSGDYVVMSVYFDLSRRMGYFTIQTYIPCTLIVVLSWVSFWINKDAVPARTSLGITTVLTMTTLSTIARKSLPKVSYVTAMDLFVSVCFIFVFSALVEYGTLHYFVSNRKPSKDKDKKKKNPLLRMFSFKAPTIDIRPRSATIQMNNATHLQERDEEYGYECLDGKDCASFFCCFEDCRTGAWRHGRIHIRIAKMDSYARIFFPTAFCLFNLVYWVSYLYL
# seizures = test: Antiseizure activity in mice dosed ip; type: in vivo; details: data not shown
# [12] = rats IP, 30mg/kg, after 1h of dosing (kindling screen table)
SMILES,ED50 scMET [1] [mg/kg],"MES, number protected/number tested ([6]; 0.5 h)","MES, number protected/number tested ([6]; 4.0 h)","scMET, number protected/number tested ([7]; 50 mg/kg, 0.5 h)","scMET, number protected/number tested ([7]; 50 mg/kg, 4.0 h)","TOX, number toxic/number tested ([8]; 0.5 h)","TOX, number toxic/number tested ([8]; 4.0 h)","scMET, number protected/number tested ([9]; 0.5 h)","TOX, number toxic/number tested ([10]; rat IP, 0.5 h)","TOX, number toxic/number tested [10, 12]",efficacy at α1 (α1β3γ2 GABAA receptors) [%],"scMET, number protected/number tested ([9]; 4.0 h)","TOX, number toxic/number tested ([10]; rat IP, 4.0 h)",other results
NC(=O)N1c2ccccc2C=Cc2ccccc21 [Carbamazepine],>50,,,,,,,,,,,,,
O=C1NC(=O)C(c2ccccc2)(c2ccccc2)N1 [Phenytoin],>50,,,,,,,,,,,,,ED50 scMET [2]: >500 mg/kg
C#Cc1ccc2c(c1)C(c1ccccn1)=NCc1c(C(=O)OCC)ncn1-2 [compound 2],,1/4,0/4,4/4,0/4,0/4,0/4,7/8,0/8,0/2 ^e,233,,,"MES, number protected/number tested ([3]; 0.5 h): 0/3; MES, number protected/number tested ([3]; 4.0 h): 0/3; scMET, number protected/number tested ([4]; 0.5 h): 3/5; scMET, number protected/number tested ([4]; 4.0 h): absent and 0/1; mice with raised scMET seizure threshold ([4]; mice ip, 0.5 h): 60%; TOX, number toxic/number tested ([5]; 0.5 h): no motor impairment and 0/8; TOX, number toxic/number tested ([5]; 4.0 h): 0/4; protection (scMET) ([7]; rats, po dosing, after four hours): no protection; TOX, number toxic/number tested ([10]; rat IP, after 1 h of dosing (footnote d, row 4.0 h)): 0/8 ^d; Seizure Score, Drug L - H (kindled motor seizure; 100mg/kg, pre-drug 4 5): 3; tolerance to the anticonvulsant effects [11]: did not develop"
C#Cc1ccc2c(c1)C(c1ccccc1F)=NCc1c(C(=O)OCC)ncn1-2 [compound 3],,0/4,1/4,3/4,4/4,0/4,0/4,3/4,0/4,0/2 ^e,282,3/4,0/4,"Seizure Score, Drug L - H (kindled motor seizure; 50mg/kg, pre-drug 5): 3"
C#Cc1ccc2c(c1)C(c1ccccc1Cl)=NCc1nnc(C)n1-2 [compound 4],,0/4,0/4,4/4,3/4,0/4,0/4,,,,,,,"scMET, number protected/number tested ([7]; 15 mg/kg, 0.5 h): 3/4; scMET, number protected/number tested ([7]; 15 mg/kg, 4.0 h): 2/4; TOX, number toxic/number tested ([10]; rats IP, 3mg/kg, after 1h of dosing (kindling screen table)): 0/2 ^f; Seizure Score, Drug L - H (kindled motor seizure; 10mg/kg, pre-drug 5): 3"
CCOC(=O)c1ncn2c1CN=C(c1ccccc1F)c1cc(I)ccc1-2 [compound 5],,,,2/6,,0/6,,1/4,0/4,,,2/4,0/4,"scMET, number protected/number tested ([7]; 50 mg/kg, after 1 h of dosing (footnote d, row 4.0 h), 50 mg/kg): 5/6 and 5/6 ^d; TOX, number toxic/number tested ([8]; after 1 h of dosing (footnote d, row 4.0 h)): no observed TOX and 0/6 ^d; activity in mice dosed ip (seizures): no activity"
